Assays:
Assay type in all cases: in vivo
[1] = test system: foxtail, giant (giant foxtail, Setaria faberi); test: Test A preemergence, giant foxtail; conditions: pre-emergence, 240 h, 0 to 100 scale, 10 days, read-out: Plant response rating, Foxtail, Giant; for pest or weed control at 31 g/ha: 31 g ai/ha; for pest or weed control at 125 g/ha: 125 g ai/ha
From the text: (§1) Seeds of plant species selected from barnyardgrass (Echinochloa crus-galli), blackgrass (Alopecurus myosuroides), corn (Zea mays), foxtail, giant (giant foxtail, Setaria faberi), goosegrass (Eleusine indica), kochia (Bassia scoparia), oat, wild (wild oat, Avena fatua), pigweed, palmer (palmer amaranth, Amaranthus palmeri), pigweed, redroot (redroot pigweed, Amaranthus retroflexus), ragweed (common ragweed, Ambrosia artemisiifolia), ryegrass, Italian (Italian ryegrass, Lolium multiflorum), soybean (Glycine max), and wheat (Triticum aestivum) were planted into a blend of loam soil and sand and treated preemergence with a directed soil spray using test chemicals formulated in a non-phytotoxic solvent mixture which included a surfactant.
(§2) At the same time, plants selected from these crop and weed species and also galium (catchweed bedstraw, Galium aparine) and horseweed (Erigeron canadensis) were planted in pots containing the same blend of loam soil and sand and treated with postemergence applications of test chemicals formulated in the same manner. Plants ranged in height from 2 to 10 cm and were in the one- to two-leaf stage for the postemergence treatment. Treated plants and untreated controls were maintained in a greenhouse for 10 days, after which time all treated plants were compared to untreated controls and visually evaluated for injury. Plant response ratings, summarized in Table A, are based on a 0 to 100 scale where 0 is no effect and 100 is complete control. A dash (-) response means no test result.

[2] = test system: ragweed (common ragweed, Ambrosia artemisiifolia); test: Test A postemergence, ragweed; conditions: post-emergence, 240 h, 0 to 100 scale, 10 days, read-out: Plant response rating, Ragweed; for pest or weed control at 31 g/ha: 31 g ai/ha; for pest or weed control at 125 g/ha: 125 g ai/ha
From the text: as §1, §2

[3] = test system: wheat (Triticum aestivum); test: Test A postemergence, wheat; conditions: post-emergence, 240 h, 0 to 100 scale, 10 days, read-out: Plant response rating, Wheat; for plant injury at 31 g/ha: 31 g ai/ha; for plant injury at 125 g/ha: 125 g ai/ha
From the text: as §1, §2

[4] = test system: ragweed (common ragweed, Ambrosia artemisiifolia); test: Test A preemergence, ragweed; conditions: pre-emergence, 240 h, 0 to 100 scale, 10 days, read-out: Plant response rating, Ragweed; for pest or weed control at 31 g/ha: 31 g ai/ha; for pest or weed control at 125 g/ha: 125 g ai/ha
From the text: as §1, §2

kochia (Bassia scoparia) = test: Test A preemergence, kochia; conditions: pre-emergence, 240 h, 0 to 100 scale, 10 days, read-out: Plant response rating, Kochia; for pest or weed control at 31 g/ha: 31 g ai/ha; for pest or weed control at 125 g/ha: 125 g ai/ha
From the text: as §1, §2

corn (Zea mays) = test: Test A postemergence, corn; conditions: post-emergence, 240 h, 0 to 100 scale, 10 days; for Corn plant response rating (crop injury, 0 = no effect, 100 = complete kill) at 31 g/ha: 31 g ai/ha; for Corn plant response rating (crop injury, 0 = no effect, 100 = complete kill) at 125 g/ha: 125 g ai/ha
From the text: as §1, §2

[5] = test system: oat, wild (wild oat, Avena fatua); test: Test A preemergence, wild oat; conditions: 0 to 100 scale, 10 days
From the text: as §1, §2

soybean (Glycine max) = test: Test A postemergence, soybean; conditions: 0 to 100 scale, 10 days
From the text: as §1, §2

[6] = test system: wheat (Triticum aestivum); test: Test A preemergence, wheat; conditions: 0 to 100 scale, 10 days
From the text: as §1, §2

[7] = test system: pigweed, palmer (palmer amaranth, Amaranthus palmeri); test: Test A postemergence, palmer amaranth; conditions: 0 to 100 scale, 10 days
From the text: as §1, §2

Row | SMILES | pest or weed control at 31 g/ha [1] | pest or weed control at 125 g/ha [1] | pest or weed control at 31 g/ha [2] | pest or weed control at 125 g/ha [2] | plant injury at 31 g/ha [3] | plant injury at 125 g/ha [3] | pest or weed control at 31 g/ha [4] | pest or weed control at 125 g/ha [4] | pest or weed control at 31 g/ha (kochia (Bassia scoparia)) | pest or weed control at 125 g/ha (kochia (Bassia scoparia)) | Corn plant response rating (crop injury, 0 = no effect, 100 = complete kill) at 31 g/ha (corn (Zea mays)) | Corn plant response rating (crop injury, 0 = no effect, 100 = complete kill) at 125 g/ha (corn (Zea mays)) | Plant response rating, Oat, Wild ([5]; 31 g ai/ha) | Plant response rating, Oat, Wild ([5]; 125 g ai/ha) | Plant response rating, Soybean (soybean (Glycine max); 31 g ai/ha) | Plant response rating, Soybean (soybean (Glycine max); 125 g ai/ha) | Plant response rating, Wheat ([6]; 31 g ai/ha) | Plant response rating, Wheat ([6]; 125 g ai/ha) | Plant response rating, Pigweed, Palmer ([7]; 31 g ai/ha) | Plant response rating, Pigweed, Palmer ([7]; 125 g ai/ha)
1 | C=CCOC1CCN(c2cc(NS(=O)(=O)C(F)(F)F)c(C)cc2C)C1=O (stereo not drawn) [Compound 2, N-[2,4-dimethyl-5-[2-oxo-3-(2-propen-1-yloxy)-1-pyrrolidinyl]phenyl]-1,1,1-trifluoromethanesulfonamide] | 100% | 100% | 50% | 70% | 70% | 70% | 20% | 80% | 50% | 90% | 0% | 90% |  |  |  |  |  |  |  | 
2 | Cc1cc(C)c(N2CCC(OC3CCCC3)C2=O)cc1NS(=O)(=O)C(F)(F)F (stereo not drawn) [Compound 6, N-[5-[3-(cyclopentyloxy)-2-oxo-1-pyrrolidinyl]-2,4-dimethylphenyl]-1,1,1-trifluoromethanesulfonamide] | 100% | 100% | 60% | 90% | 60% | 60% | 30% | 90% | 30% | 90% | 0% | 90% | 70 | 90 | 70 | 70 | 80 | 100 | 50 | 60
3 | Cc1cc(C)c(N(COC(=O)C(C)(C)C)S(=O)(=O)C(F)(F)F)cc1N1CCC(OC2CCC2)C1=O (stereo not drawn) [Compound 8, [[5-[3-(cyclobutyloxy)-2-oxo-1-pyrrolidinyl]-2,4-dimethylphenyl][(trifluoromethyl)sulfonyl]amino]methyl 2,2-dimethylpropanoate] | 90% | 100% | 70% | 90% | 60% | 70% | 20% | 90% | 0% | 100% | 30% | 80% | 0 | 70 | 60 | 90 | 0 | 50 | 60 | 90
4 | Cc1cc(C)c(N2CCC(OC3CCC3)C2=O)cc1NS(=O)(=O)C(F)(F)F (stereo not drawn) [Compound 4, N-[5-[3-(cyclobutyloxy)-2-oxo-1-pyrrolidinyl]-2,4-dimethylphenyl]-1,1,1-trifluoromethanesulfonamide] | 100% | 100% | 70% | 90% | 50% | 50% | 90% | 100% | 70% | 100% | 90% | 0% | 80 | 100 | 50 | 70 | 70 | 100 | 60 | 90
5 | Cc1cc(C)c(N2CCC(OC3CC3)C2=O)cc1NS(=O)(=O)C(F)(F)F (stereo not drawn) [Compound 3, N-[5-[3-(cyclopropyloxy)-2-oxo-1-pyrrolidinyl]-2,4-dimethylphenyl]-1,1,1-trifluoromethanesulfonamide] | 100% | 100% | 80% | 90% | 80% | 80% | 90% | 100% | 100% | 100% | 90% | 90% | 70 | 100 | 60 | 70 | 100 | 100 | 40 | 60
6 | Cc1cc(C)c(N(COC(=O)C(C)(C)C)S(=O)(=O)C(F)(F)F)cc1N1CCC(OC2CC2)C1=O (stereo not drawn) [Compound 7, [[5-[3-(cyclopropyloxy)-2-oxo-1-pyrrolidinyl]-2,4-dimethylphenyl][(trifluoromethyl)sulfonyl]amino]methyl 2,2-dimethylpropanoate] | 90% | 90% | 90% | 90% | 30% | 60% | 30% | 90% | 60% | 100% | 90% | 90% | 20 | 100 | 90 | 90 | 0 | 80 | 30 | 60
7 | Cc1cc(C)c(N(COC(=O)C(C)(C)C)S(=O)(=O)C(F)(F)F)cc1N1CCC(OC2CCCC2)C1=O (stereo not drawn) [Compound 5, [[5-[3-(cyclopentyloxy)-2-oxo-1-pyrrolidinyl]-2,4-dimethylphenyl][(trifluoromethyl)sulfonyl]amino]methyl 2,2-dimethylpropanoate] | 0% | 50% | 60% | 80% | 0% | 50% | 0% | 40% | 0% | 60% | 0% | 80% | 0 | 40 | 60 | 70 | 0 | 20 | 20 | 70
8 | C#CCOC1CCN(c2cc(NS(=O)(=O)C(F)(F)F)c(C)cc2C)C1=O (stereo not drawn) [Compound 1, N-[2,4-dimethyl-5-[2-oxo-3-(2-propyn-1-yloxy)-1-pyrrolidinyl]phenyl]-1,1,1-trifluoromethanesulfonamide] | 90% | 100% | 60% | 80% | 60% | 70% | 30% | 90% | 70% | 100% | 50% | 90% |  |  |  |  |  |  |  | 
